Data on five molecules can be found in PMC8078777 (PLoS Pathogens, 2021).

“And” between values parts separate entries of the source, which are not always exact repeats. Equal values may be shown once.

Test [1] has as its target T1, NLPPp (Phytophthora nicotianae, UniProt Q9AT28).
T1 construct: made in house; host or cells: Pichia pastoris
T1 sequence (Q9AT28 20-237): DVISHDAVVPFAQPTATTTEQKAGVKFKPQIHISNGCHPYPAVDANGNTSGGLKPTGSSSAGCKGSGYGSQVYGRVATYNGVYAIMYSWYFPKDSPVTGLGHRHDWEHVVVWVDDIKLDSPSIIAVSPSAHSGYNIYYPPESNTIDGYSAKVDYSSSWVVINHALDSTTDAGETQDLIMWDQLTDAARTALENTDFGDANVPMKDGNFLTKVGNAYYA
The test can be described thus: Tobacco leaf infiltration assay, NLPPp-induced necrosis. Format: in vivo, Phytophthora parasitica. The conditions noted are these: 400 nM NLPPp with different concentrations of compound, tobacco leaves, 24 h.

Test [2] addresses T1, NLPPp. Put plainly: Surface plasmon resonance binding to immobilized NLPPp. The arrangement: species or system Phytophthora parasitica. Conditions: for Kd: SPR, steady-state affinity model, 50 mM MES, 150 mM NaCl, 5% DMSO, pH 5.8. (In SPR one partner is held on a chip, and binding of the other changes the refractive index at the surface.)
The subject of another test is BcNEP1. Also noted: method as in doi:10.1016/j.pmpp.2010.06.003. Conditions: cited from earlier work.
Test [3] deals with T1, NLPPp. The arrangement: method as in doi:10.1016/j.pmpp.2010.06.003. The conditions noted are these: cited from earlier work.

For `Cc1oc([C@@H](O)[C@H](O)[C@H](O)CO)cc1C(=O)O` [6E11, 2-methyl-5-((1S,2R,3R)-1,2,3,4-tetrahydroxybutyl)furan-3-carboxylic acid, reference compound], on NLPPp [1], the “effect on NLPPp-induced necrosis” value is recorded as “did not affect NLPPp cytotoxicity”.
For `O=C(Cc1c[nH]c2ccccc12)Nc1ccccc1CCOC(=O)Cc1c[nH]c2ccccc12` [7C8, 2-(2-(1H-indol-3-yl)acetamido)phenethyl 2-(1H-indol-3-yl)acetate], at NLPPp [1], the “effect on NLPPp-induced necrosis” value was “inhibited”. Further, at NLPPp [2], the Kd is 40.5 µM and ~50 µM.
Regarding `COc1ccc(Nc2ccccc2C(=O)O)cc1` [6G7, 2-((4-methoxyphenyl)amino)benzoic acid], the “effect on NLPPp-induced necrosis” value at NLPPp [1] is “inhibited”. On NLPPp [2], this molecule showed a Kd of 71.9 ± 19.1 µM.
Consider `Cc1ccc2occ(C3N[C@H](C(=O)O)CS3)c(=O)c2c1` (stereo partly drawn) [6C3, (4R)-2-(6-methyl-4-oxo-4H-chromen-3-yl)thiazolidine-4-carboxylic acid], for which, on NLPPp [1], the “effect on NLPPp-induced necrosis” value is listed as “inhibited”. At NLPPp [2], the “SPR binding to NLPPp (in words)” value is on record as “nonspecific binding”.
With `O=C(N/N=C/c1ccc(O)c(O)c1)c1cc2ccccc2cc1O` [dynasore], the “effect on necrosis-inducing action of BcNEP1” value with BcNEP1 is reported as “reduced”. In addition, the “effect against NLPPp” value at NLPPp [3] is reported as “ineffective”.

The term Kd denotes the concentration at which binding is half-saturated. A high value points to lower affinity.
